Laboratory results from ChEMBL document CHEMBL3751687, “Design and synthesis of calindol derivatives as potent and selective calcium sensing receptor agonists” (Bioorg Med Chem, 2016).
Activity calls are given as the source filed them. The calls are words filed in the database; no cut-off is given here.

Columns and labels:
[1] = biological target: T1, Extracellular calcium-sensing receptor (Rattus norvegicus) (UniProt P48442); assay: Agonist activity at rat brain CaSR expressed in CHO cells assessed as inositol phosphate production at 3 uM in presence of 2 mM extracellular Ca2+ by IP-one assay; type: functional, cell-based
T1 sequence (whole entry): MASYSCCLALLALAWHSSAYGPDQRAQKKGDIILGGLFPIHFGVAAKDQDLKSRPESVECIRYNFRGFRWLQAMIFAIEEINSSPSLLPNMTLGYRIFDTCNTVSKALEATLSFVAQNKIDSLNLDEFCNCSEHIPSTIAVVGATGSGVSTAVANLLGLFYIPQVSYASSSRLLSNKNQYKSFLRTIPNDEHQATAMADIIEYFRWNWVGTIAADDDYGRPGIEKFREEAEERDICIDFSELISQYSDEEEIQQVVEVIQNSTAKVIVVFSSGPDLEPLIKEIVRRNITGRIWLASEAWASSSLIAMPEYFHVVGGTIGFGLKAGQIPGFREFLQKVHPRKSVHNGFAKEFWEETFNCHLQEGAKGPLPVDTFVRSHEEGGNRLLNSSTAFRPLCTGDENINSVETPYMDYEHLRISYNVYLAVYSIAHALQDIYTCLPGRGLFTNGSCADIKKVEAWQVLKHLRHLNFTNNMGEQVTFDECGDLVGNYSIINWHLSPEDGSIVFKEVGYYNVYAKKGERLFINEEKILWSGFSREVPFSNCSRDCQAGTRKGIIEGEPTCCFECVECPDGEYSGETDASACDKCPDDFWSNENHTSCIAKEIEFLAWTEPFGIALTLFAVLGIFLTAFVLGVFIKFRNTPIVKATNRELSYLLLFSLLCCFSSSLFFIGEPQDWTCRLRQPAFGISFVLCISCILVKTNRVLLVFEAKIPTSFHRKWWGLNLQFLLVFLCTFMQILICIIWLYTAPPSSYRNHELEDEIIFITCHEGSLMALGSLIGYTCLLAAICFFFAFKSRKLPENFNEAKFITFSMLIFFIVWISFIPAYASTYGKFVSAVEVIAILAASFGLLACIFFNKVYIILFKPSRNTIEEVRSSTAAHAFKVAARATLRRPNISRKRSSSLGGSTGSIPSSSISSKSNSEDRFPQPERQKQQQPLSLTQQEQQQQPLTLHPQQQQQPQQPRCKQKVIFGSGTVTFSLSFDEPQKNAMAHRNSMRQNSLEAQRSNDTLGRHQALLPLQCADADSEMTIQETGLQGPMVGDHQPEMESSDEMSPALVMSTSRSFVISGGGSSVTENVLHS

[2] = biological target: T1, Extracellular calcium-sensing receptor (Rattus norvegicus); assay: Agonist activity at rat brain CaSR expressed in CHO cells assessed as inositol phosphate production at 10 uM in presence of 2 mM extracellular Ca2+ by IP-one assay; type: functional, cell-based
[3] = biological target: T1, Extracellular calcium-sensing receptor (Rattus norvegicus); assay: Agonist activity at rat brain CaSR expressed in CHO cells assessed as inositol phosphate production at 10 uM in presence of 3 mM extracellular Ca2+ by IP-one assay; type: functional, cell-based
[4] = biological target: T1, Extracellular calcium-sensing receptor (Rattus norvegicus); assay: Agonist activity at rat brain CaSR expressed in CHO cells assessed as inositol phosphate production at 3 uM in presence of 3 mM extracellular Ca2+ by IP-one assay; type: functional, cell-based
[5] = biological target: T2, G-protein coupled receptor family C group 6 member A (Mus musculus) (UniProt Q8K4Z6); assay: Inhibition of L-Ornithine-stimulated wild type mouse GPRC6A expressed in HEK293 cells coexpressing GalphaqG66D assessed as increase in [3H] inositol phosphate production at 10 uM incubated for 30 mins in presence of 2 mM extracellular Ca2+; type: functional, cell-based
T2 sequence (whole entry): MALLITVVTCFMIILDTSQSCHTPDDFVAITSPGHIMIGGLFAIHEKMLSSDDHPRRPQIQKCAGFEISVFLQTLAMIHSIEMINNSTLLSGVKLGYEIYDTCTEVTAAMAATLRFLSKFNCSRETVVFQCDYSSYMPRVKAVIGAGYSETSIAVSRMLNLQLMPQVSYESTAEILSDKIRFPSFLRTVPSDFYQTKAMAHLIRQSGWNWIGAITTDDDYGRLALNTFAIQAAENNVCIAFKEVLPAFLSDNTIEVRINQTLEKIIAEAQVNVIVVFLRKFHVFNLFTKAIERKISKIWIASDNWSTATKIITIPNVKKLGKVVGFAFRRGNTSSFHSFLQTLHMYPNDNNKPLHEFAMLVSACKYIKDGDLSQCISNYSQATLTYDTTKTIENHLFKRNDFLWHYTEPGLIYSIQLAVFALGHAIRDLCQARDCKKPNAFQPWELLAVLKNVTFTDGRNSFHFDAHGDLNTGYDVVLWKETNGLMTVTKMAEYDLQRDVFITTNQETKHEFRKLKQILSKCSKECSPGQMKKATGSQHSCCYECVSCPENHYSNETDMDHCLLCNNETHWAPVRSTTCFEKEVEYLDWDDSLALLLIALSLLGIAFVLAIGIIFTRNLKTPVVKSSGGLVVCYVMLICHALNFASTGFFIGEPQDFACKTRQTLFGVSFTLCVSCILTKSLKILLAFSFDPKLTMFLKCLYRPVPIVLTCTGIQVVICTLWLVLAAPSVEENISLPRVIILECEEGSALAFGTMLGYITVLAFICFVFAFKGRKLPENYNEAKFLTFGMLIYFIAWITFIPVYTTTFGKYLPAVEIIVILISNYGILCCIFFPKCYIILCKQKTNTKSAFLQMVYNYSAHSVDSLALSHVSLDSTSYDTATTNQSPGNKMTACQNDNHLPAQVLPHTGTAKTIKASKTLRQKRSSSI

[6] = biological target: T3, Extracellular calcium-sensing receptor (Rattus norvegicus, UniProt P48442); assay: Agonist activity at rat brain CaSR expressed in CHO cells assessed as inositol phosphate production in presence of 3 mM extracellular Ca2+ by IP-one assay; type: functional, cell-based
T3 sequence (P48442 whole entry): T1 sequence (whole entry)

HEK293 = assay: Effect on inositol phosphate production in HEK293 cells in absence of L-Ornithine; type: ADME, cell-based; conditions: human
[7] = biological target: T1, Extracellular calcium-sensing receptor (Rattus norvegicus); assay: Agonist activity at rat brain CaSR expressed in CHO cells assessed as inositol phosphate production at 0.1 uM in presence of 3 mM extracellular Ca2+ by IP-one assay; type: functional, cell-based

Structure (SMILES) | Activity [2] [%] | Activity [4] [%] | other results
C[C@@H](NCc1cc2ccccc2[nH]1)c1cccc2ccccc12 [CALINDOL] | 103 | 83 | Activity [1]: 73%; Activity [3]: 100%; inhibition [5]: 35%; EC50 [6]: 132 nM
C[C@@H](NC1CCCc2c1[nH]c1ccccc21)c1cccc2ccccc12 (mixture of isomers) | – | – | Activity [3]: 67%
CC(NCc1cc2ccccc2[nH]1)c1ccc(F)c2ccccc12 (racemic) | – | 89 | Activity (HEK293): Non-toxic; inhibition [5]: inactive; EC50 [6]: 131 nM
C[C@@H](NCc1[nH]c2ccccc2c1-c1ccccc1)c1cccc2ccccc12 | – | – | Activity [3]: 55%
C[C@@H](NCc1cc2cc(OCc3ccccc3)ccc2[nH]1)c1cccc2ccccc12 | – | 23 | –
C[C@@H](NCc1cc2c(-c3ccccc3)cccc2[nH]1)c1cccc2ccccc12 | – | 85 | Activity [3]: 102%; Activity (HEK293): Non-toxic; inhibition [5]: inactive; EC50 [6]: 136 nM
C[C@@H](NCc1cc2cc([N+](=O)[O-])ccc2[nH]1)c1cccc2ccccc12 | – | 30 | –
C[C@@H](NCc1cc2cccc(-c3ccccc3)c2[nH]1)c1cccc2ccccc12 | – | 79 | –
CC(NCc1cc2ccccc2[nH]1)c1ccc(-c2ccccc2)cc1 (racemic) | – | 2 | Activity [3]: 1%
COc1cccc([C@@H](C)NCc2cc3ccccc3[nH]2)c1 | 54 | – | –
CC(NCc1cc2ccccc2[nH]1)c1ccccc1O (racemic) | – | 1 | Activity [3]: 1%
COc1ccc2cc(CN[C@H](C)c3cccc4ccccc34)[nH]c2c1 | 76 | – | Activity [1]: 33%
C[C@@H](NCc1cc2cccc(O)c2[nH]1)c1cccc2ccccc12 | – | 55 | Activity [3]: 83%
COc1cccc2[nH]c(CN[C@H](C)c3cccc4ccccc34)cc12 | 95 | – | Activity [1]: 63%
C[C@@H](NCc1cc2ccccc2[nH]1)c1ccc(Br)cc1 | – | 26 | –
COc1cc(OC)c2cc(CN[C@H](C)c3cccc4ccccc34)[nH]c2c1 | 94 | – | Activity [1]: 53%
C[C@@H](NCc1cc2cc(S(C)(=O)=O)ccc2[nH]1)c1cccc2ccccc12 | – | 54 | –
C[C@@H](NCc1cc2ccccc2[nH]1)c1ccccc1 | 34 | – | –
C[C@@H](NCc1cc2ccccc2[nH]1)c1ccc(F)cc1 | – | 30 | –
C[C@@H](NCc1cc2cccc([N+](=O)[O-])c2[nH]1)c1cccc2ccccc12 | – | 102 | Activity (HEK293): Non-toxic; Activity [7]: 70%; inhibition [5]: inactive; EC50 [6]: 20 nM
C[C@@H](NCc1cc2c(O)cccc2[nH]1)c1cccc2ccccc12 | – | 88 | EC50 [6]: 102 nM
C[C@@H](NCc1cc2cc(F)ccc2[nH]1)c1cccc2ccccc12 | 74 | – | Activity [1]: 30%
C[C@@H](NCc1cc2cc(O)ccc2[nH]1)c1cccc2ccccc12 | – | 92 | EC50 [6]: 112 nM
COc1cc2cc(CN[C@H](C)c3cccc4ccccc34)[nH]c2c(OC)c1OC | – | 40 | –
COc1ccc([C@@H](C)NCc2cc3ccccc3[nH]2)cc1 | 27 | – | –
CC(NCc1cc2ccccc2[nH]1)c1cccc(Br)c1 (racemic) | – | 49 | –
Cc1ccc2[nH]c(CN[C@H](C)c3cccc4ccccc34)cc2c1 | 69 | – | Activity [1]: 1%
Cc1ccc([C@@H](C)NCc2cc3ccccc3[nH]2)cc1 | 29 | – | –
C[C@@H](NCc1[nH]c2ccccc2c1Br)c1cccc2ccccc12 | – | 21 | –
